For 28 compounds, IC50 results are on record in patent publication US8088936B2, “Leukotriene B4 inhibitors” (Hoffman-La Roche Inc., priority 2009, dated 2012).

Structures are written as SMILES. pIC50: −log10 of the molar value.

This test deals with Human leukemia HL-60 cells endogenously expressing BLT1 and BLT2 receptors. The experiment in a line: Ca2+ flux assay for LTB4 antagonist assay (HL-60 FLIPR). It counts as cell-based. The following applies: retinoic acid induced HL-60 cells, inhibition of LTB4-induced Ca2+ flux, 30 min preincubation; read-out: LTB4 antagonism (HL-60 FLIPR). Here is the method:
Assay of Compounds for Inhibition of LTB4 Activity
Ca^2+Flux Assay for LTB4 Antagonist Assay
Human leukemia HL-60 cells endogenously expressing BLT1 and BLT2 receptors were cultured in RPMI-1640 medium supplemented with 20% fetal bovine serum, 2 mM glutamine, 100 U/ml penicillin and 100 ug/ml streptomycin.
Seventy two hours prior to experiment cells are counted using ViaCount reagent, centrifuged and resuspended at 2.0×10^5 cells/ml density with the complete growth media containing 1 μM Retinoic Acid (Sigma).
On a day of the experiment loading buffer (Calcium-3 Assay Kit, Molecular Devices) was prepared by dissolving the contents of one vial (Express Kit) into 500 ml Hank's Balanced Salt Solution containing 20 mM HEPES and 5 mM probenecid. Equal volume of the loading buffer was mixed with the replacement buffer (Hank's Balanced Salt Solution containing 20 mM HEPES, 0.05% BSA and 5 mM probenecid). Retinoic Acid induced HL-60 cells were counted using ViaCount reagent, centrifuged and resuspended at 2.0×10^6 cells/ml density with the loading buffer/replacement buffer, dispensed into 384 well black/clear microplates (Falcon) (25 μl/well) and placed in a 37° C./5% CO2 incubator for 1 hour.
During the incubation, test compounds were prepared at 6× the desired concentration in HBSS/20 mM HEPES/0.05% BSA as well as LTB4 (Biomol) was prepared at 2.2× concentration in HBSS/20 mM HEPES/0.5% BSA buffer.
After the incubation, both the cell and compound plates were brought to the FLIPR and 5 μl of the diluted compounds were transferred to the cell plates by the FLIPR. Plates were then incubated for 30 min at room temperature. After the ½ hour incubation, plates were returned to the FLIPR and 25 μl of 2.2×LTB4 was added to the cell plates. During the assay, fluorescence readings were taken simultaneously from all 384 wells of the cell plate every 1.5 seconds. Five readings were taken to establish a stable baseline, then 25 μl (LTB4) of sample was rapidly and simultaneously added to each well of the cell plate. The fluorescence was continuously monitored before, during and after sample addition for a total elapsed time of 100 seconds. Responses (increase in peak fluorescence) in each well following agonist addition was determined. The initial fluorescence reading from each well, prior to ligand stimulation, was used a zero baseline value for the data from that well. The responses are expressed as % inhibition of the neutral control (neural control: wells that received buffer plus DMSO but no test compound).
For orientation: Calcium flux is commonly read through the fluorescence of an indicator in the cells.
Take `COCc1cc(OCCCCCCc2cccc(OCCCC(=O)O)c2CCC(=O)O)cc(-c2cc(F)cc(F)c2)c1` [Example 16, 4-{2-(2-Carboxy-ethyl)-3-[6-(3′,5′-difluoro-5-methoxymethyl-biphenyl-3-yloxy)-hexyl]-phenoxy}-butyric acid]: the pIC50 is 7.83.

As to `CC(=O)c1cc(OCCCCCCc2cccc(OCCCC(=O)O)c2CCC(=O)O)cc(-c2ccsc2)c1` [Example 68, 4-[3-[6-(3-Acetyl-5-thiophen-3-yl-phenoxy)-hexyl]-2-(2-carboxy-ethyl)-phenoxy]-butyric acid], the pIC50 is 8.70.

As to `CN(C)Cc1cc(OCCCCCCc2cccc(OCCCC(=O)O)c2CCC(=O)O)cc(-c2ccsc2)c1` [Example 31, 4-{2-(2-Carboxy-ethyl)-3-[6-(3-dimethylaminomethyl-5-thiophen-3-yl-phenoxy)-hexyl]-phenoxy}-butyric acid], the pIC50 was 9.96.

Regarding `COCc1cc(OCCCCCCc2cccc(OCCCC(=O)O)c2CCC(=O)O)cc(-c2ccc(F)c(F)c2)c1` [Example 21, 4-[2-(2-Carboxy-ethyl)-3-[6-(3′,4′-difluoro-5-methoxymethyl-biphenyl-3-yloxy)-hexyl]-phenoxy]-butyric acid], the pIC50 is 8.58.

In the case of `N#CCc1cc(OCCCCCCc2cccc(OCCCC(=O)O)c2CCC(=O)O)cc(-c2ccccc2)c1` [Example 42, 4-{2-(2-Carboxy-ethyl)-3-[6-(5-cyanomethyl-biphenyl-3-yloxy)-hexyl]-phenoxy}-butyric acid], the pIC50 was 7.64.

As to `CN(C)Cc1cc(OCCCCCCc2cccc(OCCCC(=O)O)c2CCC(=O)O)cc(-c2ccc(Cl)cc2)c1` [Example 34, 4-{2-(2-Carboxy-ethyl)-3-[6-(4′-chloro-5-dimethylaminomethyl-biphenyl-3-yloxy)-hexyl]-phenoxy}-butyric acid], the pIC50 was 9.62.

As for `CCC(=O)c1cc(OCCCCCCc2cccc(OCCCC(=O)O)c2CCC(=O)O)cc(-c2ccc3c(c2)OCO3)c1` [Example 71, 4-[3-[6-(3-Benzo[1,3]dioxol-5-yl-5-propionyl-phenoxy)-hexyl]-2-(2-carboxy-ethyl)-phenoxy]-butyric acid], the pIC50 is 9.40.

Regarding `CCOCc1cc(OCCCCCCc2cccc(OCCCC(=O)O)c2CCC(=O)O)cc(-c2ccc3c(c2)OCO3)c1` [Example 25, 4-[3-[6-(3-Benzo[1,3]dioxol-5-yl-5-ethoxymethyl-phenoxy)-hexyl]-2-(2-carboxy-ethyl)-phenoxy]-butyric acid], the pIC50 is 8.97.

With `CCOc1cc(OCCCCCCc2cccc(OCCCC(=O)O)c2CCC(=O)O)cc(-c2ccc3c(c2)OCCO3)c1` [Example 46, 4-[2-(2-Carboxy-ethyl)-3-{6-[3-(2,3-dihydro-benzo[1,4]dioxin-6-yl)-5-ethoxy-phenoxy]-hexyl}-phenoxy]-butyric acid], the pIC50 was 8.95.

Regarding `CN(C)Cc1cc(OCCCCCCc2cccc(OCCCC(=O)O)c2CCC(=O)O)cc(-c2ccc3c(c2)OCO3)c1` [Example 30, 4-[3-[6-(3-Benzo[1,3]dioxol-5-yl-5-dimethylaminomethyl-phenoxy)-hexyl]-2-(2-carboxy-ethyl)-phenoxy]-butyric acid], the pIC50 is 10.00.

Take `CCOc1cc(OCCCCCCc2cccc(OCCCC(=O)O)c2CCC(=O)O)cc(-c2ccnc(Cl)c2)c1` [Example 52, 4-[2-(2-Carboxy-ethyl)-3-[6-[3-(2-chloro-pyridin-4-yl)-5-ethoxy-phenoxy]-hexyl]-phenoxy]-butyric acid]: the pIC50 is 8.16.

`COCc1cc(OCCCCCCc2cccc(OCCCC(=O)O)c2CCC(=O)O)cc(-c2cccc(F)c2)c1` [Example 14, 4-{2-(2-Carboxy-ethyl)-3-[6-(3′-fluoro-5-methoxymethyl-biphenyl-3-yloxy)-hexyl]-phenoxy}-butyric acid]: the pIC50 is 8.83.

On to `COCc1cc(OCCCCCCc2cccc(OCCCC(=O)O)c2CCC(=O)O)cc(-c2ccc(C(F)(F)F)cc2)c1` [Example 17, 4-{2-(2-Carboxy-ethyl)-3-[6-(5-methoxymethyl-4′-trifluoromethyl-biphenyl-3-yloxy)-hexyl]-phenoxy}-butyric acid], for which the pIC50 was 8.79.

Turning to `CC(C)C(=O)c1cc(OCCCCCCc2cccc(OCCCC(=O)O)c2CCC(=O)O)cc(-c2ccc3c(c2)OCO3)c1` [Example 70, 4-[3-[6-(3-Benzo[1,3]dioxol-5-yl-5-isobutyryl-phenoxy)-hexyl]-2-(2-carboxy-ethyl)-phenoxy]-butyric acid], the pIC50 was 9.51.

`CCOc1cc(OCCCCCCc2cccc(OCCCC(=O)O)c2CCC(=O)O)cc(-c2ccc(F)cc2)c1` [Example 48]: the pIC50 is 8.28.

For `O=C(O)CCCOc1cccc(CCCCCCOc2cc(CO)cc(-c3ccccc3)c2)c1CCC(=O)O` [Example 2, 4-{2-(2-Carboxy-ethyl)-3-[6-(5-hydroxymethyl-biphenyl-3-yloxy)-hexyl]-phenoxy}-butyric acid], the pIC50 is 7.61.

Regarding `CCOCc1cc(OCCCCCCc2cccc(OCCCC(=O)O)c2CCC(=O)O)cc(-c2ccc(F)cc2)c1` [Example 26, 4-{2-(2-Carboxy-ethyl)-3-[6-(5-ethoxymethyl-4′-fluoro-biphenyl-3-yloxy)-hexyl]-phenoxy}-butyric acid], the pIC50 is 7.93.

In the case of `CCOCc1cc(OCCCCCCc2cccc(OCCCC(=O)O)c2CCC(=O)O)cc(-c2ccc(S(C)(=O)=O)cc2)c1` [Example 29, 4-[2-(2-Carboxy-ethyl)-3-[6-(5-ethoxymethyl-4′-methanesulfonyl-biphenyl-3-yloxy)-hexyl]-phenoxy]-butyric acid], the pIC50 is 7.80.

For `CCOc1cc(OCCCCCCc2cccc(OCCCC(=O)O)c2CCC(=O)O)cc(-c2ccc3[nH]ccc3c2)c1` [Example 54, 4-[2-(2-Carboxy-ethyl)-3-{6-[3-ethoxy-5-(1H-indol-5-yl)-phenoxy]-hexyl}-phenoxy]-butyric acid], the pIC50 was 7.47.

Regarding `COCc1cc(OCCCCCCc2cccc(OCCCC(=O)O)c2CCC(=O)O)cc(-c2ccccc2F)c1` [Example 15, 4-{2-(2-Carboxy-ethyl)-3-[6-(2′-fluoro-5-methoxymethyl-biphenyl-3-yloxy)-hexyl]-phenoxy}-butyric acid], the pIC50 is 8.22.

As to `COCc1cc(OCCCCCCc2cccc(OCCCC(=O)O)c2CCC(=O)O)cc(-c2ccc3c(c2)OCO3)c1` [Example 8, 4-[3-[6-(3-Benzo[1,3]dioxol-5-yl-5-methoxymethyl-phenoxy)-hexyl]-2-(2-carboxy-ethyl)-phenoxy]-butyric acid], the pIC50 was 9.85.

As for `CCOc1cc(OCCCCCCc2cccc(OCCCC(=O)O)c2CCC(=O)O)cc(-c2ccc3c(c2)OC(F)(F)O3)c1` [Example 57, 4-(2-(2-Carboxy-ethyl)-3-{6-[3-(2,2-difluoro-benzo[1,3]dioxol-5-yl)-5-ethoxy-phenoxy]-hexyl}-phenoxy)-butyric acid], the pIC50 was 8.92.

In the case of `CCOc1cc(OCCCCCCc2cccc(OCCCC(=O)O)c2CCC(=O)O)cc(-c2cncnc2)c1` [Example 53, 4-[2-(2-Carboxy-ethyl)-3-[6-(3-ethoxy-5-pyrimidin-5-yl-phenoxy)-hexyl]-phenoxy]-butyric acid], the pIC50 was 7.10.

In the case of `CN(C)Cc1cc(OCCCCCCc2cccc(OCCCC(=O)O)c2CCC(=O)O)cc(-c2cccc(F)c2)c1` [Example 36, 4-{2-(2-Carboxy-ethyl)-3-[6-(5-dimethylaminomethyl-3′-fluoro-biphenyl-3-yloxy)-hexyl]-phenoxy}-butyric acid], the pIC50 is 9.85.

Turning to `O=C(O)CCCOc1cccc(CCCCCCOc2cc(CO)cc(-c3ccc(F)cc3)c2)c1CCC(=O)O` [Example 4, 4-{2-(2-Carboxy-ethyl)-3-[6-(4′-fluoro-5-hydroxymethyl-biphenyl-3-yloxy)-hexyl]-phenoxy}-butyric acid], the pIC50 was 7.53.

Regarding `CN(C)Cc1cc(OCCCCCCc2cccc(OCCCC(=O)O)c2CCC(=O)O)cc(-c2ccc(F)cc2)c1` [Example 33, 4-{2-(2-Carboxy-ethyl)-3-[6-(5-dimethylaminomethyl-4′-fluoro-biphenyl-3-yloxy)-hexyl]-phenoxy}-butyric acid], the pIC50 is 9.96.

Consider `CN(C)Cc1cc(OCCCCCCc2cccc(OCCCC(=O)O)c2CCC(=O)O)cc(-c2ccccc2)c1` [Example 32, 4-{2-(2-Carboxy-ethyl)-3-[6-(5-dimethylaminomethyl-biphenyl-3-yloxy)-hexyl]-phenoxy}-butyric acid], for which the pIC50 is 10.00.

Consider `CN(C)Cc1cc(OCCCCCCc2cccc(OCCCC(=O)O)c2CCC(=O)O)cc(-c2cccc(S(C)(=O)=O)c2)c1` [Example 39, 4-{2-(2-Carboxy-ethyl)-3-[6-(5-dimethylaminomethyl-3′-methanesulfonyl-biphenyl-3-yloxy)-hexyl]-phenoxy}-butyric acid], for which the pIC50 was 7.15.
